Assay results reported in patent US20150031714A1, “METHODS AND COMPOSITIONS FOR PREVENTION OF ALLERGIC REACTION” (Baylor College of Medicine, priority 2013, published 2015).

Columns and labels:
Stat1 (pY701) = assay: Immunoblot assay of IFN-γ-mediated Stat1 phosphorylation in HepG2 cells; assay type: cell-based, human; conditions: 300 μM, 1 hour at 37° C.
Protocol: HepG2 cells were pretreated with DMSO alone or DMSO containing each of the compounds at a concentration of 300 μM for 60 min. Cells were then stimulated with IFN-γ (30 ng/ml) for 30 min. Protein extracts of cells were separated by SDS-PAGE and immunoblotted serially with antibodies to pStat1, total Stat1 and β-actin. Blots were stripped between each immunoblotting. The results shown are representative of 2 or more experiments.
Immunoblot assay. The human hepatocellular carcinoma cell line (HepG2) was grown in 6-well plates under standard conditions. Cells were pretreated with compounds (0, 1, 3, 10, 30, 100 and 300 uM) for 1 hour then stimulated under optimal conditions with either interferon gamma (IFN-γ; 30 ng/ml for 30 min) to activate Stat1 or interleukin-6 (IL-6; 30 ng/ml for 30 min) to activate Stat3 (30-31). Cultures were then harvested and proteins extracted using high-salt buffer, as described (Shao et al., 2006). Briefly, extracts were mixed with 2× sodium dodecyl sulfate (SDS) sample buffer (125 mmol/L Tris-HCL pH 6.8; 4% SDS; 20% glycerol; 10% 2-mercaptoethanol) at a 1:1 ratio and heated for 5 minutes at 100° C. Proteins (20 μg) were separated by 7.5% SDS-PAGE and transferred to polyvinylidene fluoride (PVDF) membrane (Millipore, Waltham, Mass.) and immunoblotted. Prestained molecular weight markers (Biorad, Hercules, Calif.) were included in each gel. Membranes were probed serially with antibody against Stat1 pY^701 or Stat3 pY^705 followed by antibody against Stat1 or Stat3 (Transduction labs, Lexington, Ky.) then antibody against β-actin (Abcam, Cambridge, Mass.). Membranes were stripped between antibody probing using Restore™ Western Blot Stripping Buffer (Thermo Fisher Scientific Inc., Waltham, Mass.) per the manufacturer's instructions. Horseradish peroxidase-conjugated goat-anti-mouse IgG was used as the secondary antibody (Invitrogen Carlsbad, Calif.) and the membranes were developed with enhanced chemiluminescence (ECL) detection system (Amersham Life Sciences Inc.; Arlington Heights, Ill.).
While Stat3 contributes to oncogenesis, in part, through inhibition of apoptosis, Stat1 is anti-oncogenic; it mediates the apoptotic effects of interferons and contributes to tumor surveillance (Kaplan et al., 1998; Ramana et al., 2000). Consequently, compounds that target Stat3 while sparing Stat1, leaving its anti-oncogenic functions unopposed, may result in a synergistic anti-tumor effect. […] Thus, five of the six exemplary compounds identified were selective and inhibited ligand-stimulated phosphorylation of Stat3 but not Stat1.
EXP IIC. Ligand-mediated pStat3 and pStat1 inhibition assays. […] Briefly, human hepatocellular carcinoma cells (HepG2) are grown in 6-well plates and pretreated with compounds (0, 0.1, 0.3, 1, 3, 10, 30, 100 μM) for 1 hour then stimulated under optimal conditions with either interleukin-6 (IL-6; 30 ng/ml for 30 min) to activate Stat3 or interferon gamma (IFN-γ; 30 ng/ml for 30 min) to activate Stat1. Cells are harvested and proteins extracted using high-salt buffer, mixed with 2× sodium dodecyl sulfate (SDS) sample buffer (125 mmol/L Tris-HCL pH 6.8; 4% SDS; 20% glycerol; 10%2-mercaptoethanol) at a 1:1 ratio then heated for 5 minutes at 100° C. Proteins (20 μg) are separated by 7.5% SDS-PAGE and transferred to polyvinylidene fluoride (PVDF) membrane (Millipore, Waltham, Mass.) and immunoblotted. Membranes are probed serially with antibody against Stat1 pY701 or Stat3 pY705 followed by antibody against Stat1 or Stat3 (Transduction labs, Lexington, Ky.) then antibody against β-actin (Abcam, Cambridge, Mass.). Membranes are stripped between antibody probings using Restore™ Western Blot Stripping Buffer (Thermo Fisher Scientific Inc., Waltham, Mass.) per the manufacturer's instructions. […]

[1] = molecular target: T1, Stat3-DNA (hSIE) complexes (Homo sapiens, UniProt P40763); assay: Electrophoretic mobility shift assay (EMSA), Stat3:hSIE DNA binding; assay type: biochemical; conditions: 300 μM, extracts of IL-6-stimulated HepG2 cells
T1 construct: high salt extracts were prepared from HepG2 cells incubated without or with IL-6 (30 ng/ml) for 30 minutes; endogenous in cells; host or cells: HepG2 (IL-6-stimulated), whole-cell high-salt extract
Protocol: Electrophoretic mobility shift assays were performed using whole-cell extracts prepared from HepG2 cells without and with stimulation with IL-6 (30 ng/ml) for 30 min. Protein (20 μg) was incubated with radiolabeled duplex oligonucleotide (hSIE) and DMSO without or with the indicated compounds (300 uM) for 60 minutes at 37° C. then separated by PAGE. The gel was dried and autoradiographed; the portion of the gel corresponding to the Stat3-bound hSIE band is shown. Data shown are representative of 2 studies.
Electrophoretic Mobility Shift Assay (EMSA): EMSA was performed using the hSIE radiolabeled duplex oligonucleotide as a probe as described (Tweardy et al., 1995). Briefly, high salt extracts were prepared from HepG2 cells incubated without or with IL-6 (30 ng/ml) for 30 minutes. Protein concentration was determined by Bradford Assay and 20 ug of extract was incubated with compound (300 uM) for 60 minutes at 37 °C. […] Gels were dried and autoradiographed.
Once in the nucleus, Stat3 dimers bind to specific DNA elements to activate and, in some instances, repress gene transcription. […] Compounds that bind to the phosphopeptide-binding site of Stat3 might be expected to do the same. […]

breast cancer cell lines = assay: Apoptosis of breast cancer cell lines with constitutive Stat3 activation; assay type: cell-based

T1 sequence (P40763 2-770 limits assumed, one chain of several): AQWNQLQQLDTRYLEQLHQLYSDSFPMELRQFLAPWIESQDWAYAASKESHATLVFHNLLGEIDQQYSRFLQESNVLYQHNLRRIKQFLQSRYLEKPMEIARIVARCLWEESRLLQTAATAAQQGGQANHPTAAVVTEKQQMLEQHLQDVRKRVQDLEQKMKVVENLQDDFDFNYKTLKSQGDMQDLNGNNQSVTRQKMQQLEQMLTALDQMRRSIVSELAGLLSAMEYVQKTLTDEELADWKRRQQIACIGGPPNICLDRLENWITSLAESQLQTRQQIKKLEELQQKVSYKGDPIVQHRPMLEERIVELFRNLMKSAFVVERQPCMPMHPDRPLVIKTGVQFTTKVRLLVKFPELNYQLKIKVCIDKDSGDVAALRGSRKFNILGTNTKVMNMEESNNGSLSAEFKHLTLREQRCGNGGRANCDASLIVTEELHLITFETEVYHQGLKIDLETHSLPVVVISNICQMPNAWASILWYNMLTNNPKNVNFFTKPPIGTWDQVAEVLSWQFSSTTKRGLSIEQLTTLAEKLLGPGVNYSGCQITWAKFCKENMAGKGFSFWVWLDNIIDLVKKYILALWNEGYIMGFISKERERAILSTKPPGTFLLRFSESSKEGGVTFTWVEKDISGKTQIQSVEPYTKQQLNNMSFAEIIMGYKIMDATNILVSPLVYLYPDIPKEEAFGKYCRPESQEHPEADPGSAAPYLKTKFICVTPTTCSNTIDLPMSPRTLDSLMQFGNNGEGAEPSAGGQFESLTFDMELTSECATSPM

Row | Structure (SMILES) | Stat1 phosphorylation after IFN-γ stimulation (Stat1 (pY701)) | Stat3:hSIE band intensity (amount of hSIE shifted) [1] | induction of apoptosis of breast cancer cell lines (breast cancer cell lines)
1 | O=C(O)c1ccc(C=CC(=O)c2ccc3c(c2)OCCO3)cc1 [Cpd3, 4-[3-(2,3-dihydro-1,4-benzodioxin-6-yl)-3-oxo-1-propen-1-yl]benzoic acid] | did not | reduced the amount of hSIE shifted by half or greater | induced apoptosis preferentially
2 | CCOc1cc(C=C2C(=O)c3ccccc3C2=O)cc(Cl)c1OCc1cccc(C(=O)O)c1 [Cpd3-2, 3-({2-chloro-4-[(1,3-dioxo-1,3-dihydro-2H-inden-2-ylidene)methyl]-6-ethoxyphenoxy}methyl)benzoic acid] | did not | – | –
